Test results: ChEMBL document CHEMBL2417394, “Exquisite selectivity for human toll-like receptor 8 in substituted furo[2,3-c]quinolines” (J Med Chem, 2013)
Calls of active or inactive are those of the source. No cut-off for these calls is given here.

Target: T1, Nucleotide-binding oligomerization domain-containing protein 1 (Homo sapiens) (UniProt Q9Y239)
T1 sequence (whole entry): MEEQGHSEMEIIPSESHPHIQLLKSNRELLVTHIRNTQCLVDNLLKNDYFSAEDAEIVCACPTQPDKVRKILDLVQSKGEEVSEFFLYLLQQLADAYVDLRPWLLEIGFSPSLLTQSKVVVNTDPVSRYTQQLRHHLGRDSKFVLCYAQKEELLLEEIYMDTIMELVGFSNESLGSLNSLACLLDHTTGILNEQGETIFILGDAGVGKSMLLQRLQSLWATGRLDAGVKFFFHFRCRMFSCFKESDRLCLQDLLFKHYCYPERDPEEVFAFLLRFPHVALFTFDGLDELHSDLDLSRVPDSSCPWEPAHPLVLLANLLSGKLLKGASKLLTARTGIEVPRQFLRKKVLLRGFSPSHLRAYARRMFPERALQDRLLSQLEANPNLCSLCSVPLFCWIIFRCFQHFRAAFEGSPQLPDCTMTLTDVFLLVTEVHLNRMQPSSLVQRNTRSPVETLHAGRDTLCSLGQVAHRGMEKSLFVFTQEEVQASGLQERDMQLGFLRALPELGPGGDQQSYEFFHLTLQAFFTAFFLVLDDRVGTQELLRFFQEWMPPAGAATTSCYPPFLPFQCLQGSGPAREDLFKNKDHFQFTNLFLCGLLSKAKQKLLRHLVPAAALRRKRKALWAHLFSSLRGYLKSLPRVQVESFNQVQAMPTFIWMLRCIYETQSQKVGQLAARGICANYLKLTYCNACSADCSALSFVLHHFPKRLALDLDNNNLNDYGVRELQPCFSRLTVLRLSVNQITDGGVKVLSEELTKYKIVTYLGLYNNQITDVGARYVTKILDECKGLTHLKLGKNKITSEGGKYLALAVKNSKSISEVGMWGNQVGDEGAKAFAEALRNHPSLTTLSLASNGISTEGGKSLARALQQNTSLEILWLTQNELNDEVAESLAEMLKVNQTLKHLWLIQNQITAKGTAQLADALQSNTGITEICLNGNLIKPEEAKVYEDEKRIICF
Assay: Modulation of NOD1 (unknown origin)

NCCc1cc2c(o1)c(N)nc1ccccc12
Activity: Active
